Marks after values point to notes of the source that are not given here.
Columns and labels:
Format in all cases: cell-based
[1] = tested on: HIV-1 HXB2 mutants with site-directed mutations in RT; experiment: Recombinant virus assay, drug susceptibility of mutants with site-directed RT mutations (Example 1); details: for Fold resistance: standard error in parentheses
Experimental: Plasma samples were obtained from HIV-1-infected individuals from routine clinical practice in Europe and the US and were shipped to the laboratory on dry ice and stored at −70° C. until analysis. Phenotypic analysis was performed using the recombinant virus assay. See Kellam, P., and B. A. Larder. Antimicrob. Agents Chemother. 38:23-30 (1994); Hertogs, K., et al., Antimicrob. Agents Chemother. 42:269-276 (1998); Briefly, protease (PR) and reverse transcriptase (RT) coding sequences were amplified from patient-derived viral RNA with HIV-1 specific primers. After homologous recombination of amplicons into a PR-RT deleted proviral clone, the resulting recombinant viruses were harvested, titrated and used for in vitro susceptibility testing to antiretroviral drugs.
For the modeling studies, mutations were generated in the RT gene of HXB2, a wild-type laboratory HIV-1 strain, using the QuikChange^J Site-Directed Mutagenesis Kit, […]^7, Stratagene Cloning systems, La Jolla, Calif., USA.

[2] = tested on: patient-derived recombinant HIV-1 variants (protease/RT from patient plasma); experiment: Recombinant virus assay (ANTIVIROGRAM), MT-4 cell viral cytopathic effect (CPE) protection assay, patient-derived recombinant viruses (Example 2); details: for level of resistance: samples with AZT and 3TC resistance mutations plus T69A/N or V175M
Experimental: FIG. 1: Nucleoside analogue susceptibility of MDIR patient-derived recombinant HIV variants. Recombinant viruses were produced from patient plasma samples as described in Example 2 and tested for susceptibility to (a) d4T, (b) ddC and (c) ddl. […] Error bars indicate standard errors. Note that the total number (n=310) is higher than the 302 MDR samples described because a small minority were 69D/N and 75M double mutants and are represented in both groups.
Viral RNA was extracted from 200 μL patient plasma using the QIAAMPV® Viral RNA Extraction Kit (Qiagen, Hilden, Germany), according to the manufacturers instructions. cDNA encompassing part of the pol gene was produced using EXPAND™ reverse transcriptase (Boehringer Mannheim) as described previously. See Hertogs K., et al., Antimicrob. Agents Chemother. 42:269-276 (1998). A 2.2 kb fragment encoding the protease and RT regions was then amplified by nested polymerase chain reaction (PCR) using PCR primers and conditions as described. Id. This genetic material was subsequently used in both phenotyping and genotyping experiments.
MT-4 cells (Harada S., et al, Science 229:563-566(1985).) were co-transfected with pol gene PCR fragments and the protease-RT deleted HIV-1 molecular clone, pGEM3deltaPRT, as described. See Hertogs K., et al., Antimicrob. Agents Chemother. 42:269-276 (1998). […] Phenotypic susceptibility to nucleoside analogues was determined using an MT-4 cell viral cytopathic effect (CPE) protection assay as described. Id. Fold resistance values were derived by dividing the mean IC50 for a patient's recombinant virus by the mean IC50 for wild-type control virus (strain HXB2-D). The PCR products obtained from patient plasma samples were genotyped by dideoxynucleotide-based sequence analysis. Samples were sequenced using the BIGDYE™ terminator kit (Applied Biosystems, Inc. (ABI)) and resolved on an ABI 377 DNA sequencer.
From this analysis, 302 samples were identified with four-fold or greater increases in IC50 (relative to a wild-type control virus) to at least four of these inhibitors. […]

[3] = tested on: HIV-1 HXB2-D variants with site-directed RT mutations; experiment: MT-4 cell CPE protection assay, HIV-1 variants constructed by site-directed mutagenesis (Example 2); details: for susceptibility: 69S-[S-S] insert plus AZT resistance mutations (210W and 215Y); for resistance: T69A or V75M in a background of AZT mutations
Experimental: Mutations in the RT coding region were created by site-directed mutagenesis of a wild-type HXB2-D EcoRl-Pstl restriction enzyme fragment, encompassing the HIV-1 pol gene and cloned into pGEM3 (Promega). Single and multiple nucleotide changes were introduced into RT using the EXSITE™ mutagenesis kit (Strategene). All mutant clones were verified by DNA sequence analysis of the entire RT. PCR fragments were prepared from the mutated clones and the altered RT coding regions were transferred into the HIV-1 HXB2-D genetic background by homologous recombination as described above. The susceptibility of these recombinant viruses to nucleoside analogues was subsequently determined by the MT-4 cell CPE protection assay. Id.

Nc1ccn([C@@H]2CS[C@H](CO)O2)c(=O)n1 [3TC, lamivudine]
Fold resistance ([1]; SDM05: 41L, 210W, 211K, 214F, 215Y): 4 (0.3)^c fold | Fold resistance ([1]; SDM18: 41L, 67N, 210W, 211K, 214F, 215Y): 2 (0.6) fold | Fold resistance ([1]; SDM19: 41L, 67N, 69D, 210W, 211K, 214F, 215Y): 4 (0.7) fold | Fold resistance ([1]; SDM22: 184V, 41L, 210W, 211K, 214F, 215Y): 78 (16.3) fold | Fold resistance ([1]; SDM23: 184V): 82 (13.6) fold | Fold resistance ([1]; SDM24: 184V, 69S-S-S, 210W, 211K, 214D, 215Y): 85 (14.2) fold | Fold resistance ([1]; SDM26: 184V, 41L, 67N, 210W, 211K, 214F, 215Y): 72 (13.8) fold | Fold resistance ([1]; SDM28: 44D): 1 (0.1) fold | Fold resistance ([1]; SDM29: 1181): 2 (0.2) fold | Fold resistance ([1]; SDM30: 44D, 1181): 3 (0.3) fold | Fold resistance ([1]; SDM31: 44D, 41L, 67N, 210W, 211K, 214F, 215Y): 22 (2.5) fold | Fold resistance ([1]; SDM32: 44D, 41L, 67N, 69D, 210W, 211K, 214F, 215Y): 8 (2.2) fold | Fold resistance ([1]; SDM33: 1181, 41L, 67N, 210W, 211K, 214F, 215Y): 7 (1.0) fold | Fold resistance ([1]; SDM34: 1181, 41L, 67N, 69D, 210W, 211K, 214F, 215Y): 32 (3.9) fold | Fold resistance ([1]; SDM35: 44D, 1181, 41L, 67N, 210W, 211K, 214F, 215Y): 14 (1.4) fold | Fold resistance ([1]; SDM36: 44D, 1181, 41L, 67N, 69D, 210W, 211K, 214D, 215Y): 15 (2.1) fold | Fold resistance ([1]; SDM38: 184V, 44D, 1181, 41L, 67N, 210W, 211K, 214F, 215Y): 82 (13.5) fold | Fold resistance ([1]; SDM39: 184V, 44D, 1181, 41L, 67N, 69D, 210W, 211K, 214F, 215Y): 84 (13.9) fold | high resistance ([1]; caused by mutation 184V): > 62 fold | mean fold increase in IC50 ([2]; all four MDR groups (151 cluster, 69D/N, 75M, codon 69 insertions)): > 30 fold

Cc1cn([C@H]2C=C[C@@H](CO)O2)c(=O)[nH]c1=O [d4T, stavudine]
susceptibility [3]: decreased susceptibility | resistance [3]: little or no resistance | level of resistance [2]: only modest levels of resistance

Nc1ccn([C@H]2CC[C@@H](CO)O2)c(=O)n1 [ddC, zalcitabine]
susceptibility [3]: decreased susceptibility | resistance [3]: little or no resistance | level of resistance [2]: only modest levels of resistance
